Converted amounts (≈) assume the structure as drawn. Each block holds one compound with its values, some of them ahead of it.
Assays:
[1] = tested on: PC-3; experiment: Antiproliferative activity against human PC3 cells assessed as cell viability incubated for 48 hrs by Cell Counting Kit-8 assay; format: functional, cell-based; conditions: PC-3, 48 h
[2] = tested on: HepG2; experiment: Antiproliferative activity against human HepG2 cells assessed as cell viability incubated for 48 hrs by Cell Counting Kit-8 assay; format: functional, cell-based; conditions: HepG2, 48 h
[3] = Antiproliferative activity against human U87 cells overexpressing miR-9 assessed as cell viability incubated for 48 hrs by Cell Counting Kit-8 assay; format: functional, cell-based, U-87MG ATCC; conditions: U-87 MG
[4] = tested on: PC-3; experiment: Cytotoxicity against human PC-3 cells incubated for 48 hrs by CCK-8 assay; format: functional, cell-based; conditions: PC-3, 48 h
[5] = tested on: HepG2; experiment: Cytotoxicity against human HepG2 cells incubated for 48 hrs by CCK-8 assay; format: functional, cell-based; conditions: HepG2, 48 h
[6] = tested on: HL-60; experiment: Antitumor activity against human HL60 cells assessed as cell growth incubated for 1 day by MTT assay; format: functional, cell-based; conditions: HL-60, 24 h
[7] = Cytotoxicity against human WI-38 cells assessed as cell growth incubated for 1 day by MTT assay; format: toxicity, cell-based
[8] = tested on: HL-60; experiment: Induction of apoptosis in human HL-60 cells assessed as effective dose; format: functional; conditions: read-out: ED50 (the source's name)
[9] = tested on: HepG2; experiment: Antitumor activity against human HepG2 cells incubated for 72 hrs by SRB calorimetric assay; format: functional, cell-based; conditions: HepG2, 72 h
[10] = tested on: PC-3; experiment: Antitumor activity against human PC-3 cells incubated for 72 hrs by SRB calorimetric assay; format: functional, cell-based; conditions: PC-3, 72 h
[11] = tested on: PANC-1; experiment: Antitumor activity against human PANC-1 cells incubated for 48 to 72 hrs by MTS Assay; format: functional, cell-based
[12] = tested on: Capan-2; experiment: Antitumor activity against human Capan-2 cells incubated for 48 to 72 hrs by MTS Assay; format: functional, cell-based
[13] = tested on: BXPC-3; experiment: Antitumor activity against human BXPC-3 cells incubated for 48 to 72 hrs by MTS Assay; format: functional, cell-based
[14] = Inhibition of bovine brain FTase; set-up: species or system Bos taurus
[15] = tested on: A549; experiment: Antitumor activity against human A549 cells incubated for 72 hrs by MTT assay; format: functional, cell-based; conditions: A549, 72 h
[16] = tested on: MCF7; experiment: Antitumor activity against human MCF7 cells incubated for 72 hrs by MTT assay; format: functional, cell-based; conditions: MCF7, 72 h
[17] = tested on: K562; experiment: Antitumor activity against human K562 cells incubated for 24 hrs by CCK-8 assay; format: functional, cell-based; conditions: K562, 24 h
[18] = tested on: L5178Y; experiment: Cytotoxicity against mouse L5178Y; format: toxicity, cell-based
[19] = tested on: Aspergillus japonicus; experiment: Antifungal activity against Aspergillus japonicus IAM 2016 assessed as inhibition of fungal growth incubated for 72 hrs by broth dilution method; format: functional
[20] = tested on: Penicillium chrysogenum; experiment: Antifungal activity against Penicillium chrysogenum1AM 7106 assessed as inhibition of fungal growth incubated for 72 hrs by broth dilution method; format: functional; conditions: 1AM 7106
[21] = tested on: Rhizomucor pusillus; experiment: Antifungal activity against Rhizomucor pusillus IAM 6122 assessed as inhibition of fungal growth incubated for 72 hrs by broth dilution method; format: functional
[22] = tested on: Saccharomyces cerevisiae; experiment: Antifungal activity against Saccharomyces cerevisiae IFO 0304 assessed as inhibition of fungal growth incubated for 72 hrs by broth dilution method; format: functional
[23] = tested on: Cyberlindnera jadinii; experiment: Antifungal activity against Cyberlindnera jadinii IFO 0396 assessed as inhibition of fungal growth incubated for 72 hrs by broth dilution method; format: functional; conditions: Williopsis jadinii
[24] = tested on: Pichia kudriavzevii; experiment: Antifungal activity against Pichia kudriavzevii IFO 0590 assessed as inhibition of fungal growth incubated for 72 hrs by broth dilution method; format: functional
[25] = tested on: Rhizopus delemar; experiment: Antifungal activity against Rhizopus delemar IAM 6015 assessed as inhibition of fungal growth incubated for 72 hrs by broth dilution method; format: functional
[26] = Toxicity in CDF1 mouse allografted with mouse […] cells assessed as lethal dose administered for 6 days ,ip; format: cell-based; conditions: in vivo, time 6 day
[27] = tested on: L5178Y; experiment: Cytotoxicity against mouse L5178Y cells; format: functional
[28] = tested on: A549; experiment: Cytotoxicity against human A549 cells incubated for 72 hrs by MTT assay; format: functional, cell-based; conditions: A549, 72 h
[29] = tested on: K562; experiment: Cytotoxicity against human K562 cells incubated for 24 hrs by CCK-8 assay; format: functional, cell-based; conditions: K562, 24 h
[30] = tested on: HeLa; experiment: Antitumor activity against human HeLa cells; format: functional, cell-based
[31] = tested on: HT-29; experiment: Antitumor activity against human HT29 cells; format: functional, cell-based
[32] = tested on: U-937; experiment: Antitumor activity against human U937 cells; format: functional, cell-based
[33] = tested on: HCT-116; experiment: Antitumor activity against human HCT116 cells; format: functional, cell-based
[34] = tested on: HL-60; experiment: Antitumor activity against human HL60 cells; format: functional, cell-based
[35] = tested on: THP-1; experiment: Antitumor activity against human THP1 cells; format: functional, cell-based
[36] = tested on: B16; experiment: Antitumor activity against mouse B-16 cells; format: functional, cell-based
[37] = tested on: PANC-1; experiment: Antitumor activity against human PANC-1; format: functional, cell-based; conditions: pooled result: one value given for 3 cell lines, strains, targets or settings
[38] = tested on: HeLa; experiment: Antitumor activity against human HeLa cells incubated for 72 hrs by hemocytometer; format: functional, cell-based
[39] = tested on: PLC; experiment: Antitumor activity against human PLC cells incubated for 72 hrs by hemocytometer; format: functional, cell-based
[40] = tested on: BV-2; experiment: Cytotoxicity against LPS stimulated mouse BV-2 cells by MTS assay; format: functional, cell-based
[41] = Cytotoxicity against human HaCaT cells; format: toxicity, cell-based
[42] = Cytotoxicity against human HAF cells; format: toxicity, cell-based, Fibroblast; conditions: HAF cells (fibroblasts)
[43] = Cytotoxicity against mouse C2C12 cells; format: toxicity, cell-based
[44] = Inhibition of NO production in LPS stimulated mouse BV-2 cells measured after 24 hrs; format: functional, cell-based; conditions: BV-2, 24 h
[45] = Cytotoxicity against human HaCaT cells incubated for 48 to 72 hrs by MTS assay; format: toxicity, cell-based
[46] = Cytotoxicity against human HAF cells incubated for 48 to 72 hrs by MTS assay; format: toxicity, cell-based, Fibroblast; conditions: HAF cells (fibroblasts)
[47] = Cytotoxicity against mouse C2C12 cells incubated for 48 to 72 hrs by MTS assay; format: toxicity, cell-based

IC50 [6]: 7.7 nM | EC50 [8]: 7700 nM
Structure (SMILES): CO[C@H]1/C=C/C=C/C=C/C[C@H](OC(=O)C2(NC(=O)C3CCCCC3)CC2)[C@H](C)[C@@H](O)/C(C)=C\CCc2cc(O)cc(c2O)NC(=O)C1
IC50 at 1 day [7]: 7.7 nM

IC50 [30]: 50 nM | IC50 [31]: 50 nM | IC50 [32]: 50 nM | IC50 [33]: 50 nM | IC50 [34]: 50 nM | IC50 [35]: 50 nM | IC50 [36]: 50 nM
Structure (SMILES): CO[C@H]1/C=C/C=C/C=C/C[C@H](OC(=O)C2(NC(=O)C3=CCCCC3)CC2)[C@H](C)[C@@H](O)/C(C)=C\CCc2cc3c(c(c2O)NC(=O)C1)SCC(=O)N3

IC50 [37]: 8 nM | IC50 [38]: 8 nM | IC50 [39]: 8 nM | EC50 [44]: 25.4 nM
Structure (SMILES): CO[C@H]1/C=C/C=C/C=C/C[C@H](OC(=O)[C@@H](C)NC(=O)C2CCCCC2)[C@H](C)[C@@H](O)/C(C)=C\CCc2cc(O)cc(c2)NC(=O)C1 [TRIENOMYCIN A]
IC50 [40]: 8 nM | IC50 [41]: 8 nM | IC50 [42]: 8 nM | IC50 [43]: 8 nM | IC50 [45]: > 10000 nM | IC50 [46]: > 10000 nM | IC50 [47]: > 10000 nM

The next lines start with the compound.

Structure (SMILES): CO[C@H]1/C=C/C=C/C=C/C[C@H](OC(=O)[C@@H](C)NC(=O)C2CCCCC2)[C@H](C)[C@@H](O[C@@H]2O[C@H](CO)[C@@H](O)[C@H](O)[C@H]2O)/C(C)=C\CCc2cc(O)cc(c2O)NC(=O)C1
IC50 [1]: ≥ 2020 nM | IC50 [2]: ≥ 2020 nM | IC50 [3]: ≥ 2020 nM | IC50 [4]: 4380 nM | IC50 [5]: 2200 nM

Structure (SMILES): CO[C@H]1/C=C/C=C/C=C/C[C@H](O)[C@H](C)[C@@H](OC(=O)[C@@H](C)NC(=O)C(C)C)/C(C)=C\CCc2cc(O)cc(c2)NC(=O)C1
IC50 [9]: > 10000 nM | IC50 [10]: > 10000 nM | IC50 [11]: > 10000 nM | IC50 [12]: > 10000 nM | IC50 [13]: > 10000 nM

Structure (SMILES): C/C=C(\C)C(=O)N[C@H](C)C(=O)O[C@H]1C/C=C/C=C/C=C/[C@H](OC)CC(=O)Nc2cc(O)cc(c2O)CC/C=C(/C)[C@H](O)[C@H]1C
IC50 [14]: 0.6 µg/mL (≈ 0.982 µM)

Structure (SMILES): CO[C@H]1/C=C/C=C/C=C/C[C@H](O)[C@H](C)[C@@H](O)/C(C)=C\CCc2cc(O)cc(c2)NC(=O)C1
IC50 [15]: > 10000 nM | IC50 [16]: > 10000 nM | IC50 [17]: > 10000 nM

Structure (SMILES): CO[C@H]1/C=C/C=C/C=C/C[C@H](OC(=O)[C@@H](C)NC(=O)C2CCCCC2)[C@H](C)[C@@H](O)/C(C)=C\CCC2=CC(=O)C=C(NC(=O)C1)C2=O
MIC [18]: 1.25 µM (≈ 0.796 µg/mL) | MIC [19]: 4 µg/mL (≈ 6.28 µM) | MIC [20]: 4 µg/mL (≈ 6.28 µM) | MIC [21]: 4 µg/mL (≈ 6.28 µM) | MIC [22]: 4 µg/mL (≈ 6.28 µM) | MIC [23]: 4 µg/mL (≈ 6.28 µM) | MIC [24]: 4 µg/mL (≈ 6.28 µM) | MIC [25]: 4 µg/mL (≈ 6.28 µM) | LD50 at 144 h [26]: 56 mg/kg | MIC [27]: 0.11 µg/mL (≈ 0.173 µM)

Structure (SMILES): CO[C@H]1/C=C/C=C/C=C/C[C@H](OC(=O)[C@@H](C)NC(C)=O)[C@H](C)[C@@H](O)/C(C)=C\CCc2cc(O)cc(c2)NC(=O)C1
IC50 [15]: > 10000 nM | IC50 [16]: > 10000 nM | IC50 [17]: > 10000 nM | IC50 [28]: 15000 nM | IC50 [29]: 23000 nM

Structure (SMILES): CO[C@H]1/C=C/C=C/C=C/C[C@H](OC(=O)[C@@H](C)NC(=O)C2CCCCC2)[C@H](C)[C@@H](O)/C(C)=C\CCc2cc(O)cc(c2O)NC(=O)C1
MIC [19]: 4 µg/mL (≈ 6.26 µM) | MIC [20]: 4 µg/mL (≈ 6.26 µM) | MIC [21]: 4 µg/mL (≈ 6.26 µM) | MIC [22]: 4 µg/mL (≈ 6.26 µM) | MIC [23]: 4 µg/mL (≈ 6.26 µM) | MIC [24]: 4 µg/mL (≈ 6.26 µM) | MIC [25]: 4 µg/mL (≈ 6.26 µM) | LD50 at 144 h [26]: 80 mg/kg | MIC [27]: 0.11 µg/mL (≈ 0.172 µM)

Source: ChEMBL document CHEMBL5247589, “Natural occurrence, bioactivity, and biosynthesis of triene-ansamycins” (Eur J Med Chem, 2022)
